Data from the supplement of paper PMC10307832.

Assays:
Assay in all cases: relative viability (nuclei count vs DMSO), 5 days (fraction); higher = more cells survive
Tipifarnib + Phenformin = compound: Cn1cncc1[C@@](N)(c1ccc(Cl)cc1)c1ccc2c(c1)c(-c1cccc(Cl)c1)cc(=O)n2C [Tipifarnib] + N=C(N)NC(=N)NCCc1ccccc1 [Phenformin] (partner 250 µM)
Procedure, shortened: (§1)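 Cells from lung cancer lines were seeded into 1536-well plates and, one day later, dosed by pin tool. Treatments were either a single drug or a fixed dose of an anchor drug with five library-drug doses (not always all listed) in √10 steps. After 5 days, nuclei were stained in a one-step fixation (final 0.05% Triton X-100, 1% formaldehyde, 1 ug/ml Hoechst) and counted on 4× images, and relative viability is the treated-to-vehicle nuclei ratio, as the median of duplicate plates.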

Tipifarnib + Pictilisib = compound: Cn1cncc1[C@@](N)(c1ccc(Cl)cc1)c1ccc2c(c1)c(-c1cccc(Cl)c1)cc(=O)n2C [Tipifarnib] + CS(=O)(=O)N1CCN(Cc2cc3nc(-c4cccc5[nH]ncc45)nc(N4CCOCC4)c3s2)CC1 [Pictilisib] (partner 1 µM)
Procedure, shortened: as §1

Tipifarnib + Decitabine = compound: Cn1cncc1[C@@](N)(c1ccc(Cl)cc1)c1ccc2c(c1)c(-c1cccc(Cl)c1)cc(=O)n2C [Tipifarnib] + Nc1ncn([C@H]2C[C@H](O)[C@@H](CO)O2)c(=O)n1 [Decitabine] (partner 2 µM)
Procedure, shortened: as §1

Tipifarnib + Palbociclib = compound: Cn1cncc1[C@@](N)(c1ccc(Cl)cc1)c1ccc2c(c1)c(-c1cccc(Cl)c1)cc(=O)n2C [Tipifarnib] + CC(=O)c1c(C)c2cnc(Nc3ccc(N4CCNCC4)cn3)nc2n(C2CCCC2)c1=O [Palbociclib] (partner 0.5 µM)
Procedure, shortened: as §1

| Cell Line | relative viability (Tipifarnib + Phenformin; first compound 0.01 µM) | relative viability (Tipifarnib + Phenformin; first compound 0.03162 µM) | relative viability (Tipifarnib + Phenformin; first compound 0.1 µM) | relative viability (Tipifarnib + Phenformin; first compound 0.3162 µM) | relative viability (Tipifarnib + Phenformin; first compound 1 µM) | relative viability (Tipifarnib + Pictilisib; first compound 0.01 µM) | relative viability (Tipifarnib + Pictilisib; first compound 0.03162 µM) | relative viability (Tipifarnib + Pictilisib; first compound 0.1 µM) | relative viability (Tipifarnib + Pictilisib; first compound 0.3162 µM) | relative viability (Tipifarnib + Pictilisib; first compound 1 µM) | relative viability (Tipifarnib + Decitabine; first compound 0.01 µM) | relative viability (Tipifarnib + Decitabine; first compound 0.03162 µM) | relative viability (Tipifarnib + Decitabine; first compound 0.1 µM) | relative viability (Tipifarnib + Decitabine; first compound 0.3162 µM) | relative viability (Tipifarnib + Decitabine; first compound 1 µM) | relative viability (Tipifarnib + Palbociclib; first compound 0.01 µM) | relative viability (Tipifarnib + Palbociclib; first compound 0.03162 µM) | relative viability (Tipifarnib + Palbociclib; first compound 0.1 µM) | relative viability (Tipifarnib + Palbociclib; first compound 0.3162 µM) | relative viability (Tipifarnib + Palbociclib; first compound 1 µM) |
| --- | --- | --- | --- | --- | --- | --- | --- | --- | --- | --- | --- | --- | --- | --- | --- | --- | --- | --- | --- | --- |
| LCLC-103H | 0.326 | 0.319 | 0.275 | 0.267 | 0.295 | 0.566 | 0.606 | 0.617 | 0.491 | 0.469 | 0.757 | 0.672 | 0.785 | 0.635 | 0.673 | 0.483 | 0.384 | 0.491 | 0.411 | 0.571 |
| NCI-H441 | 0.984 | 0.619 | 0.465 | 0.525 | 0.329 | 0.489 | 0.461 | 0.463 | 0.328 | 0.212 | 0.217 | 0.241 | 0.237 | 0.204 | 0.183 | 0.197 | 0.161 | 0.188 | 0.144 | 0.164 |
| SK-LU-1 | 0.528 | 0.324 | 0.307 | 0.275 | 0.283 | 0.574 | 0.568 | 0.424 | 0.378 | 0.299 | 0.728 | 0.627 | 0.706 | 0.594 | 0.59 | 0.398 | 0.353 | 0.393 | 0.357 | 0.335 |
| BEN | 0.294 | 0.272 | 0.273 | 0.255 | 0.262 | 0.543 | 0.587 | 0.543 | 0.472 | 0.417 | 0.748 | 0.759 | 0.66 | 0.699 | 0.503 | 0.587 | 0.475 | 0.488 | 0.455 | 0.451 |
| LC-2-ad | 0.566 | 0.532 | 0.498 | 0.568 | 0.372 | 0.515 | 0.371 | 0.255 | 0.325 | 0.191 | 0.871 | 0.913 | 0.77 | 0.802 | 0.641 | 0.464 | 0.439 | 0.442 | 0.336 | 0.38 |
| COR-L23 | 0.469 | 0.351 | 0.361 | 0.305 | 0.238 | 0.816 | 0.509 | 0.458 | 0.383 | 0.298 | 0.526 | 0.329 | 0.375 | 0.347 | 0.288 | 0.302 | 0.222 | 0.198 | 0.153 | 0.173 |
| NCI-H1650 | 0.291 | 0.209 | 0.196 | 0.262 | 0.187 | 0.409 | 0.228 | 0.337 | 0.265 | 0.191 | 0.307 | 0.298 | 0.309 | 0.357 | 0.304 | 0.295 | 0.211 | 0.243 | 0.205 | 0.183 |
| RERF-LC-KJ | 0.447 | 0.401 | 0.392 | 0.366 | 0.339 | 0.551 | 0.501 | 0.561 | 0.347 | 0.328 | 0.848 | 0.691 | 0.733 | 0.451 | 0.478 | 1.22 | 1.12 | 0.957 | 0.813 | 0.784 |
| NCI-H1915 | 0.383 | 0.359 | 0.341 | 0.267 | 0.236 | 0.581 | 0.513 | 0.511 | 0.397 | 0.31 | 0.272 | 0.245 | 0.284 | 0.232 | 0.257 | 0.317 | 0.318 | 0.281 | 0.218 | 0.241 |
| NCI-H2009 | 0.525 | 0.492 | 0.388 | 0.386 | 0.352 | 0.981 | 0.579 | 0.524 | 0.466 | 0.319 | 0.382 | 0.378 | 0.362 | 0.357 | 0.323 | 0.204 | 0.206 | 0.193 | 0.298 | 0.152 |
| NCI-H2126 | 0.56 | 0.532 | 0.517 | 0.49 | 0.435 | 0.491 | 0.492 | 0.518 | 0.478 | 0.391 | 0.576 | 0.582 | 0.578 | 0.519 | 0.53 | 0.353 | 0.332 | 0.345 | 0.35 | 0.354 |
| LXF-289 | 0.518 | 0.494 | 0.494 | 0.418 | 0.175 | 0.86 | 0.793 | 0.735 | 0.699 | 0.464 | 0.415 | 0.391 | 0.429 | 0.348 | 0.377 | 0.615 | 0.586 | 0.591 | 0.549 | 0.565 |
| HCC-44 | 0.214 | 0.107 | 0.166 | 0.18 | 0.109 | 0.667 | 0.619 | 0.451 | 0.262 | 0.363 | 0.869 | 0.846 | 0.934 | 0.847 | 0.804 | 0.952 | 0.921 | 0.945 | 0.92 | 0.926 |
| PC-14 | 0.512 | 0.494 | 0.282 | 0.239 | 0.128 | 0.656 | 0.59 | 0.251 | 0.169 | 0.173 | 0.223 | 0.183 | 0.221 | 0.189 | 0.145 | 0.42 | 0.346 | 0.226 | 0.15 | 0.163 |
| HOP-62 | 0.573 | 0.418 | 0.403 | 0.353 | 0.347 | 0.506 | 0.158 | 0.24 | 0.3 | 0.26 | 0.204 | 0.225 | 0.196 | 0.254 | 0.191 | 0.425 | 0.33 | 0.268 | 0.188 | 0.191 |
| NCI-H358 | 0.372 | 0.45 | 0.307 | 0.323 | 0.168 | 0.387 | 0.367 | 0.362 | 0.347 | 0.268 | 0.202 | 0.203 | 0.243 | 0.278 | 0.183 | 0.152 | 0.127 | 0.118 | 0.129 | 0.144 |
